Literature values in publication PMC10289985, “Brigatinib pharmacokinetics in patients with chronic hepatic impairment” (Investigational New Drugs, 2023).
Like-named read-outs stand apart in the source and are kept apart here.

What was measured:
[1] = parameters: method as in PMID 29468455; conditions: patients with moderate or severe hepatic impairment; cited from earlier work
[2] = parameters: method as in PMID 30052269; conditions: cited from earlier work
[3] = parameters: method as in ref 26 = [26]; 26. Zykadia [package insert] (2021) Novartis Pharmaceuticals Corporation, East Hanover, NJ; conditions: cited from earlier work

Structure (SMILES): C[C@@H](Oc1cc(-c2cnn(C3CCNCC3)c2)cnc1N)c1c(Cl)ccc(F)c1Cl [crizotinib]
- change of concentrations in hepatic impairment [1]: increased

Structure (SMILES): CCc1cc2c(cc1N1CCC(N3CCOCC3)CC1)C(C)(C)c1[nH]c3cc(C#N)ccc3c1C2=O [alectinib]
- increase of combined systemic exposures (AUC) of alectinib and its M4 metabolite ([2]; moderate hepatic impairment vs matched healthy participants): 36%
- increase of combined systemic exposures (AUC) of alectinib and its M4 metabolite ([2]; severe hepatic impairment vs matched healthy participants): 76%

Structure (SMILES): Cc1cc(Nc2ncc(Cl)c(Nc3ccccc3S(=O)(=O)C(C)C)n2)c(OC(C)C)cc1C1CCNCC1 [ceritinib]
- systemic exposures compared with healthy participants ([3]; mild and moderate hepatic impairment): similar
- increase of unbound systemic exposure (AUC) ([3]; severe hepatic impairment): 108%
